The results in this text go back to PMC4150255 (Journal of medicinal chemistry, 2012).

The assay concerns LNCaP C-81 cells. Description: cell proliferation assay. The format is cell-based, Human. The conditions noted are these: regular culture medium, 3 days treatment.

`O=C(NN=C1C=CC(=NOS(=O)(=O)c2ccccc2)C=C1)c1cc2ccccc2cc1O` [Compound A9]: the inhibition of proliferation result is given as “up to 70%”.
`O=C(c1ccc(O)c(NC(=O)c2cccc3ccccc23)c1)c1ccc(O)c(NC(=O)c2cccc3ccccc23)c1` [Compound A36]: the inhibition of proliferation result was “about 32%”.
